This note sets out measurements from ChEMBL document CHEMBL1201862, “PubChem BioAssay data set” (2004).

Molecules are shown by their SMILES.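 1) Cells in 96-well plates. 2) Compound, 48 h, 5 concentrations. 3) Linear interpolation between surrounding doses. 4) Unreached endpoint = highest concentration. Abbreviation: GI50, concentration required for 50% inhibition of growth.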 The source made the active and inactive calls. Cut-off read from the data, not from the text of the source: active = GI50 up to about 1.1 µM and inactive = higher.

The GI50 is the concentration at which growth is held to half of that of the control.

Among the test systems are CAKI-1; NCI-H226; LOX IMVI; Hs-578T; HL-60; RPMI-8226; Malme-3M; IGROV-1; SF-539; SF-268; TK-10; MDA-N; SN12C; EKVX; MOLT-4; 786-0; NCI/ADR-RES; A549; SK-MEL-2.
Holding throughout (experiment): DTP human tumour cell line panel, 48 h

For `Cn1c(=O)c2nc(SCc3ccccn3)[nH]c2n(C)c1=S`, the GI50 with CAKI-1 is > 100 µM (inactive); in the test with NCI-H226, 63.7 µM (inactive); in the test on LOX IMVI, > 100 µM (inactive); in the test on Hs-578T, > 100 µM (inactive); with HL-60, > 100 µM (inactive); in the test on RPMI-8226, > 100 µM (inactive). Further, the GI50 in the test with Malme-3M is > 100 µM (inactive); with IGROV-1, > 100 µM (inactive); with SF-539 it was 34.1 µM (inactive); with SF-268, > 100 µM (inactive); in the test on TK-10, 86.7 µM (inactive); in the test on MDA-N, > 100 µM (inactive). The GI50 is 74.1 µM (inactive) with SN12C; 74 µM (inactive) with EKVX; > 100 µM (inactive) in the test on MOLT-4; 67.5 µM (inactive) in the test with 786-0; 90.4 µM (inactive) in the test on NCI/ADR-RES; > 100 µM (inactive) in the test with A549. For the same compound, the GI50 in the test on SK-MEL-2 is 52.8 µM (inactive).

Turning to `COc1ccc(CNC2=Nc3ccncc3S(=O)(=O)N2c2ccccc2)cc1`, the GI50 in the test on CAKI-1 was > 100 µM (inactive); in the test on NCI-H226, 17 µM (inactive); in the test on LOX IMVI it was 46.9 µM (inactive); in the test with Hs-578T it was 33.8 µM (inactive); with HL-60 it was 12.8 µM (inactive); with RPMI-8226, 16.4 µM (inactive). In addition, the GI50 in the test on Malme-3M was 49.9 µM (inactive); with IGROV-1 it was 39.9 µM (inactive); in the test with SF-539, 4.74 µM (inactive); with SF-268 it was 52.4 µM (inactive); with TK-10, 20.3 µM (inactive); with MDA-N, 29.9 µM (inactive). In addition, the GI50 with SN12C was 80.9 µM (inactive); in the test on EKVX it was 65 µM (inactive); in the test on MOLT-4, 19 µM (inactive); with 786-0, 47.4 µM (inactive); in the test with NCI/ADR-RES, 35.9 µM (inactive); with A549 it was 40.6 µM (inactive). The GI50 in the test with SK-MEL-2 was 41.7 µM (inactive).

In the case of `N/C(=N/c1ccc(O)cc1)S(=O)O`, the GI50 in the test with CAKI-1 was > 100 µM (inactive); with NCI-H226, 37.2 µM (inactive); with LOX IMVI it was > 100 µM (inactive); in the test on Hs-578T it was > 100 µM (inactive); with HL-60 it was > 100 µM (inactive); in the test with RPMI-8226, > 100 µM (inactive). The GI50 with Malme-3M, with IGROV-1, in the test on SF-539, in the test on SF-268, with TK-10 and in the test on MDA-N was > 100 µM (inactive) in each case. Besides, the GI50 with SN12C, with EKVX, in the test with MOLT-4, in the test with 786-0, in the test with NCI/ADR-RES and with A549 was > 100 µM (inactive) each time. In the test on SK-MEL-2, the GI50 is > 100 µM (inactive).

`CC(=O)[C@]1(O)Cc2c(O)c3c(c(O)c2C(OC2OC(C)C(O)C(O)C2F)C1)C(=O)c1ccccc1C3=O` (some centres undefined): the GI50 was 0.013 µM (active) in the test on CAKI-1; 0.0265 µM (active) with NCI-H226; 0.0713 µM (active) in the test with LOX IMVI; 0.33 µM (active) in the test on Hs-578T; < 0.01 µM (active) with HL-60; < 0.0299 µM (active) in the test on RPMI-8226. Also, the 50% growth inhibitory concentration (GI50) is 0.208 µM (active) in the test on Malme-3M; 0.0419 µM (active) with IGROV-1; < 0.0402 µM (active) with SF-539; 0.084 µM (active) in the test on SF-268; 0.197 µM (active) in the test on TK-10; 0.475 µM (active) in the test with MDA-N. In addition, the GI50 in the test on SN12C is 0.0247 µM (active); in the test on EKVX, 0.61 µM (active); in the test on MOLT-4, < 0.01 µM (active); in the test on 786-0 it was 0.0288 µM (active); in the test on NCI/ADR-RES it was 0.318 µM (active); with A549, 0.019 µM (active). The GI50 in the test with SK-MEL-2 was 0.828 µM (active).

Turning to `CCOP(=O)(OCC)C(Nc1ccc(Cl)cc1)c1ccc(F)cc1` (centres undefined), the GI50 with CAKI-1 was 22.3 µM (inactive); in the test with NCI-H226 it was 25.8 µM (inactive); in the test with LOX IMVI, 15.7 µM (inactive); in the test with Hs-578T, 20.8 µM (inactive); in the test with HL-60, 18.6 µM (inactive); in the test with RPMI-8226, 22.5 µM (inactive). The GI50 is 19.1 µM (inactive) with Malme-3M; > 10 µM (inactive) with IGROV-1; 22 µM (inactive) with SF-539; 20.1 µM (inactive) in the test on SF-268; 42.7 µM (inactive) in the test on TK-10; 19.9 µM (inactive) in the test with MDA-N. In addition, the GI50 was 18.4 µM (inactive) in the test on SN12C; 29.2 µM (inactive) in the test on EKVX; 23.1 µM (inactive) in the test on MOLT-4; 19.3 µM (inactive) in the test with 786-0; 22.8 µM (inactive) in the test on NCI/ADR-RES; 31 µM (inactive) in the test with A549. In addition, the GI50 in the test with SK-MEL-2 was 14.6 µM (inactive).

Take `C[n+]1cccc(/C=C/c2ccc3cccc(O)c3n2)c1`: the GI50 in the test on CAKI-1 is > 100 µM (inactive); in the test with NCI-H226, > 100 µM (inactive); in the test on LOX IMVI it was > 100 µM (inactive); in the test on Hs-578T it was 65.5 µM (inactive); in the test with HL-60 it was 28.1 µM (inactive); in the test on RPMI-8226, > 100 µM (inactive). The GI50 in the test with Malme-3M is 19.3 µM (inactive); with IGROV-1, > 100 µM (inactive); in the test with SF-539 it was 88.1 µM (inactive); in the test with SF-268 it was 26.9 µM (inactive); in the test with TK-10, > 100 µM (inactive); with MDA-N, > 100 µM (inactive). Moreover, the GI50 in the test on SN12C was 32.1 µM (inactive); in the test on EKVX it was > 100 µM (inactive); in the test with MOLT-4, 54.5 µM (inactive); with 786-0, > 100 µM (inactive); in the test on NCI/ADR-RES, > 100 µM (inactive); in the test on A549, 39.9 µM (inactive). For the same compound, the GI50 in the test on SK-MEL-2 is > 100 µM (inactive).

As for `CCOC(=O)C(=CNc1ccc(NC2=NCC(C)S2)cc1)C(=O)OCC` (centres undefined), the GI50 was 45.3 µM (inactive) in the test with CAKI-1; 42.4 µM (inactive) in the test on NCI-H226; 30.1 µM (inactive) with LOX IMVI; 25.5 µM (inactive) in the test with Hs-578T; 2.38 µM (inactive) in the test with HL-60; 9.48 µM (inactive) with RPMI-8226. For the same compound, the GI50 in the test on Malme-3M was 24.3 µM (inactive); in the test with IGROV-1, 26.8 µM (inactive); in the test with SF-539, 47.8 µM (inactive); with SF-268 it was 33.1 µM (inactive); with TK-10 it was 46.1 µM (inactive); in the test on MDA-N, 25.7 µM (inactive). The GI50 in the test on SN12C is 41 µM (inactive); in the test with EKVX, 37.3 µM (inactive); with MOLT-4 it was 3.15 µM (inactive); with 786-0 it was 26.1 µM (inactive); with NCI/ADR-RES, 23.1 µM (inactive); in the test with A549 it was 35.6 µM (inactive). Besides, the GI50 in the test with SK-MEL-2 was 19.7 µM (inactive).

For `Oc1ccc2ccccc2c1-c1nnc(CCCCCCCCc2nnc(-c3c(O)ccc4ccccc34)o2)o1`, the GI50 in the test on CAKI-1 is 0.813 µM (active); with NCI-H226, 10.4 µM (inactive); with LOX IMVI, 1.01 µM (active); with Hs-578T, > 84.9 µM (inactive); with HL-60, 0.319 µM (active); in the test on RPMI-8226 it was 2.72 µM (inactive). Further, the GI50 is 3.1 µM (inactive) with Malme-3M; 0.536 µM (active) with IGROV-1; 1.52 µM (inactive) in the test with SF-539; 0.834 µM (active) with SF-268; 9.42 µM (inactive) in the test on TK-10; 4.23 µM (inactive) in the test on MDA-N. Also, the GI50 in the test on SN12C was 1.21 µM (inactive); in the test with EKVX, 4.05 µM (inactive); with MOLT-4, 0.449 µM (active); in the test on 786-0 it was 1.1 µM (active); in the test on NCI/ADR-RES, 1.44 µM (inactive); with A549, 3.85 µM (inactive). In addition, the GI50 with SK-MEL-2 is 5.87 µM (inactive).

Take `CC(C)NCC(O)c1cc(OCc2ccccc2)c(OCc2ccccc2)cc1NC(=O)CCC(=O)O` (centres undefined): the GI50 in the test with CAKI-1 was 8.75 µM (inactive); with NCI-H226, 15.7 µM (inactive); with LOX IMVI it was 1.57 µM (inactive); in the test with Hs-578T it was 11.6 µM (inactive); in the test with HL-60 it was 3.15 µM (inactive); in the test with RPMI-8226, 2.81 µM (inactive). In addition, the GI50 is 15.2 µM (inactive) in the test on Malme-3M; 11.4 µM (inactive) with IGROV-1; 16.4 µM (inactive) with SF-539; 10.1 µM (inactive) in the test on SF-268; 7.53 µM (inactive) in the test on TK-10; 2.21 µM (inactive) in the test on MDA-N. Moreover, the GI50 was 11.7 µM (inactive) in the test with SN12C; 12.4 µM (inactive) in the test with EKVX; 3.64 µM (inactive) in the test with MOLT-4; 7.52 µM (inactive) in the test on 786-0; 12.9 µM (inactive) in the test on NCI/ADR-RES; 11.8 µM (inactive) in the test with A549. The GI50 in the test on SK-MEL-2 is 1.45 µM (inactive).

Take `Clc1ccc(-c2cc(-c3nc4ccccc4[nH]3)no2)cc1`: the GI50 was 18.3 µM (inactive) in the test on CAKI-1; 27.4 µM (inactive) with NCI-H226; 19.5 µM (inactive) with LOX IMVI; 29.6 µM (inactive) in the test with Hs-578T; 7.4 µM (inactive) in the test with HL-60; 24.3 µM (inactive) in the test with RPMI-8226. Moreover, the GI50 is 19.3 µM (inactive) with Malme-3M; 22.6 µM (inactive) with IGROV-1; 23.9 µM (inactive) in the test on SF-539; 21.3 µM (inactive) in the test with SF-268; 21.9 µM (inactive) with TK-10; 17.5 µM (inactive) in the test with MDA-N. Also, the GI50 is 18.6 µM (inactive) in the test on SN12C; 16.9 µM (inactive) in the test on EKVX; 16.1 µM (inactive) in the test with MOLT-4; 24.3 µM (inactive) in the test on 786-0; 23.6 µM (inactive) in the test on NCI/ADR-RES; 19.1 µM (inactive) with A549. The GI50 in the test with SK-MEL-2 was 18.7 µM (inactive).

On to `COc1cc(C(=O)O)ccc1OS(=O)(=O)O`, for which the GI50 in the test on CAKI-1, in the test on NCI-H226, in the test with LOX IMVI, with Hs-578T, with HL-60 and in the test on RPMI-8226 was > 100 µM (inactive) in each case. Besides, the GI50 in the test with Malme-3M, with IGROV-1, in the test on SF-539, with SF-268, in the test with TK-10 and with MDA-N was > 100 µM (inactive) in each case. The GI50 in the test with SN12C, with EKVX, in the test with MOLT-4, with 786-0, in the test on NCI/ADR-RES and in the test with A549 was > 100 µM (inactive) throughout. Moreover, in the test with SK-MEL-2, the GI50 is > 100 µM (inactive).
